{"source": "patent US20040019018A1", "about": "“Rigid pyrrolidone modulators of pkc” (priority 2003, published 2004)", "key": {"whole brain PKC": {"molecular_target": "whole brain PKC", "assay": "[3H]PDBu displacement from unresolved mixture of PKC isozymes from whole brain extracts", "type": "binding", "conditions": "[3H]PDBu competition", "experimental": "The ability of representative compounds of the invention to bind specific isozymes of PKC was determined using an assay (Example 13) in which displacement of [20-^3H]phorbol -12,13-dibutyrate ([^3H]PDBu) from either recombinant PKC isozymes prepared in a Baculovirus system, or unresolved mixture of isozymes of PKC isolated from whole brain extracts, was used. These procedures are described below. As described in detail below, preferred compounds for neurological effects are those in which affinity for α, β and γ isozymes is the greatest (i.e. those having the lowest Ki) relative to other isozymes as such as the δ- and ε-isozymes shown in Table 1. […]\nAnalysis of [20-^3H]phorbol 12,13-dibutyrate binding to PKC. […] Phosphatidylserine and bovine […] were obtained from Sigma Chemical Co. Binding was determined in an incubation volume of 250 μl, containing [^3H]PDBu, PKC, 0.05 M Tris-Cl, pH 7.4, 100 μg/ml phosphatidylserine, various concentrations of the ligand being assayed for competition of [^3H]PDBu binding, and bovine […] at 1 mg/ml. […] [^3H]PDBu was used at a concentration twice the Kd previously determined for the specific receptor. […]\nSpecific binding represents the difference between total binding and the non-specific binding, where the latter value was calculated from the partition coefficient and the measured free [^3H]PDBu concentration in each tube. […]"}, "sAPP α": {"system": "sAPP α", "assay": "Secreted APP from human fibroblasts, Western blot with 6E10 (Example 14)", "type": "cell-based", "conditions": "human fibroblasts (AD patients)", "experimental": "Human fibroblasts were grown to confluence as above for PKC translocation. On the day of the experiment, cells were rinsed twice with serum-free Dulbecco's modified Eagle's medium (DMEM) and incubated in the same medium for 2 hours. Cells were treated with the drugs above, or DMSO vehicle as a control, for 2 hours. The medium was collected and spun for 5 min in a clinical centrifuge to remove cell debris. Proteins in the cell medium were precipitated using 10% trichloroacetic acid (TCA). Precipitated proteins were dissolved in electrophoresis buffer, separated on 8% SDS-PAGE as described above. Secreted APP was detected by Western blotting using a specific monoclonal antibody, 6E10."}, "soluble APPα (sAPPα)": {"system": "soluble APPα (sAPPα)", "assay": "Secretion of soluble APPα from human fibroblasts (Example 15)", "type": "cell-based", "conditions": "10-20 μM, 2 hours", "experimental": "Human fibroblasts from Alzheimer's patients (AD, cell line AG06848) or age-matched controls (AC, cell line AG07141) were grown to near confluence in DMEM containing 10% fetal bovine serum. On the day of the experiments, cells were rinsed twice with DMEM with no serum and incubated with the same […] for 2 hours at 37° C., 5% CO2. Cells were incubated for 2 additional hours with different concentrations of the drugs or equal volume of DMSO vehicle as control. The medium was collected and centrifuged at 1000 rpm to remove cell debris. Proteins were precipitated by addition of equal volume of 20% ice-cold tricholoroacetic acid (TCA) and incubation on ice for 60 minutes. The protein pellets were washed with ice-cold acetone and centrifuged for 30 minutes at 20,000 g for 30 minutes and dried overnight. Pellets were dissolved in electrophoresis buffer and proteins corresponding to the same concentration of protein were separated by SDS-PAGE and transferred to PVDF membranes according to the manufacturer's instructions. After electrophoresis, the membranes were blocked with Blotto and incubated overnight with a monoclonal antibody 6E10 (Synetek) that recognizes the APPα. After incubation with the secondary antibody, alkaline phosphatase anti-mouse IgG (Jackson's Laboratories), the membranes were developed using an alkaline phosphatase kit (BioRad) as per the manufacturer's instructions."}, "[1]": {"system": "LNCaP prostate cancer cells", "assay": "Induction of apoptosis in LNCaP prostate cancer cells (DAPI staining)", "type": "cell-based", "experimental": "The capacity of inducing apoptosis by compound (1) was evaluated in a model of LNCaP prostate cancer cells. It is well established that in this model phorbol esters (e.g., PMA) activate PKC to induce apoptosis (reference 13). LNCaP cells were treated with compound (1) for 1 h, and apoptosis was assessed 24 h later.\nControl cells or cells infected for 14 h with adenoviruses for LacZ, PKCα, or PKCδ (multiplicity of infection=10 pfu/cell) were treated with different concentrations of compound (1) or PMA for 1 h. Cells were collected 24 h later and stained with DAPI. The incidence of apoptosis in each preparation was analyzed by counting 500 cells and determining the percentage of apoptotic cells. Results are the mean±standard error of three independent experiments.\nIt is well established that PKCα and PKCδ are the isozymes that mediate phorbol ester-induced apoptosis in LNCaP cells (references 13c-e). A model that has been used to assess isozyme-specificity is the overexpression of specific PKCs by an adenoviral system. Infection of LNCaP cells with adenoviruses for PKCs leads to a high expression of the corresponding PKC isozyme, as determined by Western-blot analysis, kinase activity, or [^3H]PDBu binding (reference 13e)."}}, "data": [{"smiles": "CCCCCCCCCCCC(=O)Oc1ccc2c(c1)[C@](C)(C(C)C)[C@H]1C(=O)N[C@H](CO)[C@@H]21", "note": "[Compound 2, (3S, 8R, 9S, 10S)-6-dodecanoyloxyl-3-hydroxymethyl-8-isopropyl-8-methyl-3,3a,8,8a-tetrahydro-2H -2-aza-cyclopenta[a]inden-1-one]", "values": [{"measurement": "Ki", "setting": "whole brain PKC", "result": "> 10", "unit": "µM"}]}, {"smiles": "CCCCCCCCC#Cc1ccc2c(c1)C(C)(C(C)C)C1C(=O)NC(CO)C21", "note": "[Compound 1, (3S, 8R, 9S, 10S)-6-(dec-1′-ynyl)-3-hydroxymethyl-8-isopropyl-8-methyl-3,3a,8,8a-tetrahydro-2H-2-aza-cyclopenta[a]inden-1-one]", "values": [{"measurement": "Ki", "setting": "whole brain PKC", "result": "> 10", "unit": "µM"}, {"measurement": "secretion of sAPP", "setting": "sAPP α", "result": "increased the secretion of sAPP"}, {"measurement": "secretion of soluble APPα (sAPPα)", "setting": "soluble APPα (sAPPα)", "result": "increased the secretion of soluble APPα (sAPPα) significantly"}, {"measurement": "apoptotic effect in LNCaP cells", "setting": "[1]; 1-30 μM, treated 1 h, apoptosis assessed 24 h later, FIG. 6A", "result": "induces a dose-dependent apoptotic effect"}, {"measurement": "apoptotic effect with control adenovirus", "setting": "[1]; LNCaP cells infected with LacZ adenovirus", "result": "did not affect the apoptotic effect"}, {"measurement": "apoptotic response with overexpression of PKC isozymes", "setting": "[1]; LNCaP cells infected with adenoviruses for PKCα or PKCδ", "result": "markedly potentiates the apoptotic response"}]}]}
